Source: patent US11685900B2, “Nanofiber-based long-term primary hepatocyte three-dimensional culture system and culturing method” (NANOFAENTECH CO., LTD., priority 2017, dated 2023)

Tested on: primary hepatocytes
Conditions: mouse, 24 h
Description: Fifty μL of the sample to be quantified and 100 μL of acetonitrile were mixed, centrifuged at 14000 rpm for 10 minutes and the obtained supernatant (130 μL) was dried in nitrogen gas and was dissolved in a solution (10 mM potassium phosphate:acetonitrile, 65%:35% (v/v)) and measured by HPLC (Shimazu Prominence LC-20A) at flow rate of 1 mL/min and at an absorbance of 245 nm for 10 minutes.

decrease of the drug administered (50 μM): 75-85%
concentration of phenacetin detected in the culture (500 μM): 350 to 400 µM
concentration of phenacetin detected in the culture medium (500 μM): 350 µM
concentration of phenacetin measured in the culture (500 μM): about 200 μM
Structure (SMILES): CCOc1ccc(NC(C)=O)cc1 [phenacetin]
